Row | Compound | melting point
1 | COc1cc2nc(-c3ccc(Cl)cc3)nc(NCCN(C(C)C)C(C)C)c2cc1OC.Cl.Cl | 246 °C
2 | COc1cc2nc(-c3ccc(Cl)cc3)nc(N3CCN(Cc4ccccc4)CC3)c2cc1OC.Cl.Cl | 225 °C
3 | COc1cccc(CNc2nc(-c3ccc(C)cc3)nc3cc(OC)c(OC)cc23)c1.Cl | 278 °C
4 | COc1cccc(CCNc2nc(-c3ccc(C)cc3)nc3cc(OC)c(OC)cc23)c1.Cl | 256 °C
5 | COc1cc2c(NCCO)nc(-c3ccc(Cl)cc3)nc2c(OC)c1OC.Cl | 202 °C
6 | COc1ccccc1N1CCN(c2nc(-c3ccc(Cl)cc3)nc3c(OC)c(OC)c(OC)cc23)CC1 [Example 10, 2-(4-Chlorophenyl)-4-(4-(2-methoxyphenyl)piperazino)-6,7,8-trimethoxyquinazoline] | 157 °C
7 | COc1cc2nc(-c3ccc(Cl)cc3)nc(NCCCn3ccnc3)c2cc1OC [Example 21, 2-(4-Chlorophenyl)-4-(3-(1-imidazolyl)propylamino)-6,7-dimethoxyquinazoline] | 242 °C
8 | COc1cc2nc(-c3ccc(Cl)cc3)nc(NC3CCN(Cc4ccccc4)CC3)c2cc1OC [Example 22, 2-(4-Chlorophenyl)-4-((1-benzylpiperidin-4-yl)amino)-6,7-dimethoxyquinazoline] | 252 °C
9 | COc1cc2nc(-c3ccc(Cl)cc3)nc(NC3CC(C)(C)NC(C)(C)C3)c2cc1OC [Example 26, 2-(4-Chlorophenyl)-4-((2,2,6,6-tetramethylpiperidin-4-yl)amino)-6,7-dimethoxyquinazoline] | 231 °C
10 | COc1cc2nc(-c3ccc(Cl)cc3)nc(NCCCN3CCCC3=O)c2cc1OC [Example 27, 2-(4-Chlorophenyl)-4-(3-(2-oxopyrrolidino)propylamino)-6,7-dimethoxyquinazoline] | 210 °C
11 | COc1cc2nc(-c3ccc(Cl)cc3)nc(N3CCN(CC(=O)N4CCOCC4)CC3)c2cc1OC [Example 30, 2-(4-Chlorophenyl)-4-(4-(morpholinocarbonylmethyl)piperazino)-6,7-dimethoxyquinazoline] | 198 °C
12 | COc1cc2nc(-c3ccc(Cl)cc3)nc(NCC(=O)O)c2cc1OC [Example 34, N-(2-(4-Chlorophenyl)-6,7-dimethoxyquinazolin-4-yl)aminoacetic Acid] | 270 °C (dec.)
13 | COc1cc2nc(-c3ccc(C)cc3)nc(NCCN(C(C)C)C(C)C)c2cc1OC [Example 40, 2-(4-Methylphenyl)-4-(2-diisopropylaminoethylamino)-6,7-dimethoxyquinazoline] | 81 °C
14 | COc1cc2nc(-c3ccc(Cl)cc3)nc(N(C)CCO)c2cc1OC [Example 41, 2-(4-Chlorophenyl)-4-(N-(2-hydroxyethyl)-N-methylamino)-6,7-dimethoxyquinazoline] | 129 °C
15 | COc1cc2nc(-c3ccc(C(F)(F)F)cc3)nc(N3CCN(CCO)CC3)c2cc1OC [Example 43, 2-(4-Trifluoromethylphenyl)-4-(4-(2-hydroxyethyl)piperazino)-6,7-dimethoxyquinazoline] | 176 °C
16 | COc1cc2nc(-c3ccc(C(F)(F)F)cc3)nc(N3CCN(C)CC3)c2cc1OC [Example 45, 2-(4-Trifluoromethylphenyl)-4-(4-methylpiperazino)-6,7-dimethoxyquinazoline] | 139 °C
17 | COc1cc2nc(-c3ccc(Cl)cc3)nc(NCCc3ccc(Oc4ccccc4)cc3)c2cc1OC [Example 46, 2-(4-Chlorophenyl)-4-(2-(4-phenoxyphenyl)ethylamino)-6,7-dimethoxyquinazoline] | 216 °C
18 | COC(=O)CNc1nc(-c2ccc(Cl)cc2)nc2cc(OC)c(OC)cc12 [Example 47, 2-(4-Chlorophenyl)-4-((methoxycarbonylmethyl)amino)-6,7-dimethoxyquinazoline] | 196 °C
19 | COc1cc2nc(-c3ccc(Cl)cc3)nc(N3CCOCC3)c2cc1OC [Example 48, 2-(4-Chlorophenyl)-4-morpholino-6,7-dimethoxyquinazoline] | 178 °C
20 | COc1cc2nc(-c3ccc(C)cc3)nc(N3CCOCC3)c2cc1OC [Example 49, 2-(4-Methylphenyl)-4-morpholino-6,7-dimethoxyquinazoline] | 200 °C
21 | COc1cc2nc(-c3ccc(C(F)(F)F)cc3)nc(N3CCOCC3)c2cc1OC [Example 50, 2-(4-Trifluoromethylphenyl)-4-morpholino-6,7-dimethoxyquinazoline] | 207 °C
22 | COc1cc2nc(-c3ccc(C)cc3)nc(NCc3ccncc3)c2cc1OC [Example 51, 2-(4-Methylphenyl)-4-((4-pyridylmethyl)amino)-6,7-dimethoxyquinazoline] | 208 °C
23 | COc1cc2nc(-c3ccc(C)cc3)nc(NCc3ccccn3)c2cc1OC [Example 52, 2-(4-Methylphenyl)-4-((2-pyridylmethyl)amino)-6,7-dimethoxyquinazoline] | 196 °C

Row | Compound | melting point
24 | COc1cc2nc(-c3ccc(C)cc3)nc(NCCc3ccccn3)c2cc1OC [Example 53, 2-(4-Methylphenyl)-4-((2-(2-pyridyl)ethyl)amino)-6,7-dimethoxyquinazoline] | 204 °C
25 | COc1cc2c(NCc3cccnc3)nc(-c3ccc(Cl)cc3)nc2c(OC)c1OC [Example 54, 2-(4-Chlorophenyl)-4-((3-pyridylmethyl)amino)-6,7,8-trimethoxyquinazoline] | 262 °C
26 | COc1cc2c(N3CCOCC3)nc(-c3ccc(Cl)cc3)nc2c(OC)c1OC [Example 55, 2-(4-Chlorophenyl)-4-morpholino-6,7,8-trimethoxyquinazoline] | 153 °C
27 | COc1cc2c(N3CCNCC3)nc(-c3ccc(Cl)cc3)nc2c(OC)c1OC [Example 56, 2-(4-Chlorophenyl)-4-piperazino-6,7,8-trimethoxyquinazoline] | 156 °C
28 | COc1cc2c(NCCO)nc(-c3ccc(Cl)cc3)nc2c(OC)c1OC [Example 57, 2-(4-Chlorophenyl)-4-(2-hydroxyethylamino)-6,7,8-trimethoxyquinazoline] | 202 °C
29 | COCCNc1nc(-c2ccc(Cl)cc2)nc2c(OC)c(OC)c(OC)cc12 [Example 58, 2-(4-Chlorophenyl)-4-(2-methoxyethylamino)-6,7,8-trimethoxyquinazoline] | 165 °C
30 | COc1cc2c(NCCCn3ccnc3)nc(-c3ccc(Cl)cc3)nc2c(OC)c1OC [Example 59, 2-(4-Chlorophenyl)-4-(3-(1-imidazolyl)propylamino)-6,7,8-trimethoxyquinazoline] | 245 °C
31 | COc1cc2c(N3CCN(C)CC3)nc(-c3cc(C(F)(F)F)cc(C(F)(F)F)c3)nc2c(OC)c1OC [Example 62, 2-(3,5-Bistrifluoromethylphenyl)-4-(4-methylpiperazino)-6,7,8-trimethoxyquinazoline] | 176 °C
32 | COc1cc2c(NCCN(C(C)C)C(C)C)nc(-c3cc(C(F)(F)F)cc(C(F)(F)F)c3)nc2c(OC)c1OC [Example 63, 2-(3,5-Bistrifluoromethylphenyl)-4-(2-diisopropylaminoethylamino)-6,7,8-trimethoxyquinazoline] | 128 °C
33 | COc1cc2c(N3CCOCC3)nc(-c3cc(C(F)(F)F)cc(C(F)(F)F)c3)nc2c(OC)c1OC [Example 64, 2-(3,5-Bistrifluoromethylphenyl)-4-morpholino-6,7,8-trimethoxyquinazoline] | 170 °C
34 | COc1cc2c(NCc3cccnc3)nc(-c3cc(C(F)(F)F)cc(C(F)(F)F)c3)nc2c(OC)c1OC [Example 65, 2-(3,5-Bistrifluoromethylphenyl)-4-((3-pyridylmethyl)amino)-6,7,8-trimethoxyquinazoline] | 229 °C
35 | COc1cc2c(N3CCSCC3)nc(-c3ccc(Cl)cc3)nc2c(OC)c1OC [Example 66, 2-(4-Chlorophenyl)-4-thiomorpholino-6,7,8-trimethoxyquinazoline] | 174 °C
36 | COc1cc2c(N3CC[S+]([O-])CC3)nc(-c3ccc(Cl)cc3)nc2c(OC)c1OC [Example 68, 2-(4-Chlorophenyl)-4-(1-oxothiomorpholino)-6,7,8-trimethoxyquinazoline] | 198 °C
37 | COc1cc2c(N3CCS(=O)(=O)CC3)nc(-c3ccc(Cl)cc3)nc2c(OC)c1OC [Example 69, 2-(4-Chlorophenyl)-4-(1,1-dioxothiomorpholino)-6,7,8-trimethoxyquinazoline] | 241 °C
38 | COc1cc2nc(-c3ccc(C)cc3)nc(NCc3cccc([N+](=O)[O-])c3)c2cc1OC [Example 72, 2-(4-Methylphenyl)-4-((3-nitrophenylmethyl)amino)-6,7-dimethoxyquinazoline] | 250 °C
39 | COc1ccccc1CCNc1nc(-c2ccc(C)cc2)nc2cc(OC)c(OC)cc12 [Example 73, 2-(4-Methylphenyl)-4-(2-(2-methoxyphenyl)ethylamino)-6,7-dimethoxyquinazoline] | 205 °C
40 | COc1cc2nc(-c3ccc(Cl)cc3)nc(N3CCSCC3)c2cc1OC [Example 74, 2-(4-Chlorophenyl)-4-thiomorpholino-6,7-dimethoxyquinazoline] | 214 °C
41 | COc1cc2nc(-c3ccc(C)cc3)nc(N3CCSCC3)c2cc1OC [Example 75, 2-(4-Methylphenyl)-4-thiomorpholino-6,7-dimethoxyquinazoline] | 213 °C
42 | COc1cc2nc(-c3ccc(Cl)cc3)nc(N3CC[S+]([O-])CC3)c2cc1OC [Example 76, 2-(4-Chlorophenyl)-4-(1-oxothiomorpholino)-6,7-dimethoxyquinazoline] | 226 °C
43 | COc1cc2nc(-c3ccc(C)cc3)nc(N3CC[S+]([O-])CC3)c2cc1OC [Example 77, 2-(4-Methylphenyl)-4-(1-oxothiomorpholino)-6,7-dimethoxyquinazoline] | 216 °C
44 | COc1cc2c(N3CCN(c4ccccn4)CC3)nc(-c3ccc(Cl)cc3)nc2c(OC)c1OC [Example 78, 2-(4-Chlorophenyl)-4-(4-(2-pyridyl)piperazino)-6,7,8-trimethoxyquinazoline] | 141 °C
45 | CCCN(CCC)c1nc(-c2ccc(Cl)cc2)nc2c(OC)c(OC)c(OC)cc12 [Example 80, 2-(4-Chlorophenyl)-4-dipropylamino-6,7,8-trimethoxyquinazoline] | 109 °C

Reference: US6613772B1, “Substituted 2-aryl-4-amino-chinazolines, method for the production and use thereof as medicaments” (Aventis Pharma Deutschland GmbH, priority 1997, dated 2003)
